This passage reports ED50 and minimal effective dose results from ChEMBL document CHEMBL1123631, “Synthesis and gastrointestinal pharmacology of the 4-fluoro analogue of enisoprost” (1987).

Common to all, as to assay type: functional
For test [1], the system named is Canis familiaris. As to the kind of experiment: Gastric antisecretory activity was determined in food stimulated Pavlov dogs by intrapouch administration ig; Value ranges from 6.2-15.3. The settings on record: Canis lupus familiaris.
The species named for a further test is Rattus norvegicus. Kind of test: Mucosal protective activity in rats was measured as minimum effective dose (MED); ig. The note with it: po, read-out: MED.
Test [2] has as its system Canis familiaris. As to the kind of experiment: Gastric antisecretory activity was determined in food stimulated Pavlov dogs by intrapouch administration ig; Value ranges from 0.017-0.032. The note with it: Canis lupus familiaris.

The ED50 is the dose at which the effect has come halfway, by size or by number of responders. In turn, `CCCCC(C)(O)C/C=C/[C@H]1[C@H](O)CC(=O)[C@@H]1CC/C=C(/F)CCC(=O)OC` (some centres undefined) returned an ED50 with Canis familiaris [1] of 9.7 µg/kg. Also, in the test listed under Rattus norvegicus, the minimal effective dose came out at 50 µg/kg.
Turning to `CCCCC(C)(O)C/C=C/[C@H]1[C@H](O)CC(=O)[C@@H]1CC/C=C\CCC(=O)OC` (some centres undefined) [ENISOPROST], the 50% effective dose (ED50) with Canis familiaris [2] was determined as 0.023 µg/kg. In the test listed under Rattus norvegicus, the minimal effective dose turned out to be 1 µg/kg.
